Publication PMC10683027, “Discovery of tert-Butyl Ester Based 6-Diazo-5-oxo-L-norleucine Prodrugs for Enhanced Metabolic Stability and Tumor Delivery” (Journal of Medicinal Chemistry, 2023)
Entries after “also recorded” stand apart in the source; their conditions may differ.

Key:
[1] = tested on: P493B lymphoma cells suspended in human plasma; experiment: Human tumor cell to plasma partitioning assay; type: cell-based; conditions: 20 μM; 1 h; human plasma fraction
Procedure: Human tumor cell to plasma partitioning assays were conducted as we have previously described.[25] Briefly, P493B lymphoma cells were grown at 37 °C, in a humidified atmosphere with 5% CO2. Cell confluency was estimated, and cells were harvested after achieving >80% confluency and centrifuged at 200g for 5 min at 25 °C. The obtained cell pellet was resuspended in 20 mL of Dulbecco’s phosphate-buffered saline (DPBS; Gibco, USA, cat. no. 14-190-144) maintained at 37 °C, and cell count was determined using an automated cell counter (Bio-Rad, USA). Cell suspension in DPBS was further centrifuged at 200g for 5 min at 25 °C, and the cell pellet was resuspended in human plasma (Innovative Research, USA) for partitioning assessment. The final cell density after resuspending in plasma was 10 million cells/mL of plasma. Partitioning assessment was performed in triplicate. Preincubated (37 °C for 5 min) cell–plasma suspension was spiked with DRP-104 or P11 at a final concentration of 20 μM and incubated at 37 °C for 1 h. Following incubation, a 1 mL aliquot of cell–plasma suspension was centrifuged at 1000g for 5 min at 4 °C, and supernatant plasma as well as the cell pellet was collected and stored at −80 °C until bioanalysis. Both plasma and cell pellet fractions were analyzed for intact prodrug and DON levels. […]

[2] = Stability of P11 in human plasma; type: in vitro ADME; conditions: Figure 3A
Procedure: Briefly, intestinal tissue was homogenized over ice via probe sonication with 1:9 tissue to potassium phosphate buffer (0.1 M) conditions. Prodrugs were spiked in plasma or tissue homogenate at 10 μM final concentration with 0.2% DMSO v/v and incubated in triplicate for 0 and 60 min time points. At each time point, 100 μL of the sample was precipitated with 300 μL of methanol containing internal standard (IS; losartan, 0.5 μM). Precipitated samples were vortexed (30 s) and centrifuged at 10000g for 10 min at 4 °C. After centrifugation, 100 μL of supernatant was aliquoted and submitted for analysis. Prodrug disappearance over time was monitored by liquid chromatography–mass spectrometry (LC–MS) through peak area ratios between the analyte and internal standard.

[3] = Stability of P11 in human GI microsomes; type: in vitro ADME; conditions: Figure 3A
[4] = tested on: glutamine and FGAR in EL4 tumors; experiment: Tumor target engagement: glutamine and FGAR quantification; type: in vivo, C57BL/6/CES1–/– mice; conditions: P11 2.9 mg/kg SC
Procedure: Glutamine and FGAR were extracted from the tumor by protein precipitation. Per milligram of tissue, 5 μL of methanol containing 10 μmol/L deuterated N-acetyl aspartic acid and deuterated glutamate (internal standards) was added. Tissue samples were homogenized as described above and centrifuged (16000g, 5 min). Standard concentration curves of glutamine and FGAR in untreated plasma and tumor tissues were prepared (separately). For FGAR quantification, supernatants (2 μL) were injected and separated on an UltiMate 3000 UHPLC coupled to a Q Exactive Focus Orbitrap mass spectrometer. Samples were separated on an Agilent Eclipse Plus C18 RRHD (1.8 μm) 2.1 × 100 mm column. The mobile phase consisted of 8 mmol/L dimethylhexylamine (DMHA) + 0.005% formic acid in water, pH 9 (A), and 8 mmol/L DMHA in acetonitrile (B). […] Quantification was performed in full MS negative mode. Data were acquired and quantified with Xcalibur software.
Glutamine analysis took place on an Agilent 1290 UPLC coupled to an Agilent 6520 quadrupole time-of-flight mass spectrometer. Samples (2 μL) were injected and separated on a Waters Acquity UPLC BEH Amide 1.7 μm 2.1 × 100 mm HILIC column with a flow rate of 0.3 mL/min. The mobile phases consisted of A (water +0.1% formic acid) and B (acetonitrile + 0.1% formic acid). The mass spectrometer was run in positive ion mode. Standard curves for FGAR and glutamine were fitted using a blank subtraction method[47] to compensate for the presence of endogenous analyte levels in naïve matrixes.

[5] = Chemical (aqueous) stability in buffer pH 7.4; type: physicochemical; conditions: 10 μM; pH 7.4 PBS; 37 °C; 24 h; HRMS/LCMS
Procedure: The aqueous solubility was determined as previously reported with minor modifications.[48] Briefly, an excess amount of P11 or DRP-104 was added to PBS buffer (pH 7.4) and sonicated for 1 h at 37 °C to ensure saturation. After 1 h, the solution was filtered (0.45 μm PTFE), and the filtrate was diluted appropriately, and the concentration of each analyte was determined via LC–MS. Chemical stabilities of DRP-104 and P11 were done as previously described[18] with modifications. For chemical stability, prodrugs were spiked (10 μM) in buffer at pH 7.4 and incubated at 37 °C for 24 h. Prodrug disappearance was monitored using the developed HRMS methods.

For `CN(C)CC(=O)N[C@@H](Cc1ccccc1)C(=O)N[C@@H](CCC(=O)C=[N+]=[N-])C(=O)OC(C)(C)C` [Prodrug P11, tert-Butyl (S)-6-Diazo-2-((S)-2-(2-(dimethylamino)acetamido)-3-phenylpropanamido)-5-oxohexanoate], the “stability and DON release in human plasma” value [1] was “stable in human plasma with no DON release”, the “stability in human plasma” value [2] was “confirmed” and the “stability in human GI microsomes” value [3] was “confirmed”. The “fold increase in tumor FGAR compared with vehicle” value ([4]; 30 min) was 150, the “fold rise in tumor glutamine compared with vehicle” value ([4]; 30 min) was ~2 and the “tumor FGAR level” value ([4]; 30 min post dose (Tmax)) was 1040 ± 179 nmol/g. The tumor glutamine level ([4]; 30 min post dose (Tmax)) was 1710 ± 173 nmol/g and the “chemical stability in buffer” value [5] was “remained intact without any degradation; also recorded: no degradation”.
